Results taken from patent US10406124B2, “Method of treatment of gynecological cancer with anti-RAGE antibodies” (Swansea University, priority 2014, dated 2019).
Read-outs that look alike come from different tables or passages of the source. Non-standard residues stand in square brackets, D forms with d. Residues, ends and D or L forms follow the SMILES beside them. *: point of attachment. Dolaproine = CO[C@@H]([C@@H]1CCCN1)[C@@H](C)C(=O)O; Dil = CC[C@H](C)[C@H](NC)[C@@H](CC(=O)O)OC; X1 = C[C@@H](N*)[C@@H](O)c1ccccc1; NMeV = CN[C@H](C(=O)O)C(C)C

Assays:
[1] = system: TOV112D cells; assay: Cell viability / cytotoxicity of RAGE ADCs in TOV112D ovarian cancer cells; type: cell-based, human; conditions: 24 h, free cytotoxin
Protocol: (§1) Endometrial (Ishikawa) or ovarian (TOV112D) cancer cells were cultured in 96-well plates and treated with an extended concentration range of MMAE, MMAF, RAGE MMAE or RAGE MMAF for 24 or 48 h. Data was analysed by non-linear regression and IC50 concentrations determined for each treatment.
Data are presented as box plots showing the median (line), 25th and 75th percentiles (box) and 10th and 90th percentile (whiskers), n=4. Data were analysed by ANOVA and Dunnett's pairwise multiple comparison t-test.
The linkers used in Examples 3 & 4 were directly compared. […] After treatment, cell viability (FIG. 17) was determined by a fluorescence-based cell viability assay (Apotox Glo Triplex assay, Promega) according to the manufacturer's instructions. […] Data were analysed by ANOVA and Dunnett's pairwise multiple comparison t-test. […]
Comparisons of the AA4, HG6 and DF6 ADCs to the SNIPER ADC were made within normal ovarian (HOSEpic) and ovarian cancer (TOV112D and SKOV3) cells, and normal endometrial (Healthy) and endometrial cancer (HEC1A, HEC1B and Ishikawa) cells. Cells were treated for 96 h with 5 μg/ml of each of the ADCs, and cell health monitored as previously described. […] Data are presented as mean (SEM), and were analysed by ANOVA and Dunnett's pairwise multiple comparison t-test.

[2] = system: Ishikawa cells; assay: Cell viability / cytotoxicity of RAGE ADCs in Ishikawa endometrial cancer cells; type: cell-based; conditions: Homo sapiens, read-out: IC50 of drug alone
Protocol: as §1
After treatment, cell viability in both cell lines (FIG. 13), and cell apoptosis in Ishikawa cells (caspase activation; FIG. 14) were determined by a fluorescence-based cell viability assay (Apotox Glo Triplex assay, Promega) according to the manufacturer's instructions. Data are presented as box plots showing the median (line), 25th and 75th percentiles (box) and 10th and 90th percentile (whiskers), n=4. Data were analysed by ANOVA and Dunnett's pairwise multiple comparison t-test. […]

[3] = system: RAGE; assay: RAGE protein expression by immunohistochemistry in endometrial biopsies of patients taking tamoxifen; type: in vivo, human
Protocol: RAGE protein expression was measured by Immunohistochemistry in endometrial biopsies from patients diagnosed with endometrial hyperplasia, Type I or Type II endometrial cancer (EC), postmenopausal controls as well as breast cancer patients taking tamoxifen as part of their treatment that have developed, or not, endometrial cancer. 138 patients were grouped as follows: PM (n=25, median=0.2), Hyperplasia (n=21, median=5.5), type I EC (n=18, median=1.5), type II EC (n=17, median=2), TX no EC (n=19, median=4), type I EC plus TX (n=21, median=4) and type II EC plus TX (n=17, median=0.2).
IHC samples were scored blind by three independent observers. Values shown are median IHC scores and statistical analysis was performed using a Mann-Whitney test *p<0.05, **p<0.01, ***p<0.001, compared to PM control.

Compound: CC[C@H](C)[C@@H]([C@@H](CC(=O)N1CCC[C@H]1[C@H](OC)[C@@H](C)C(=O)N[C@H](C)[C@@H](O)c1ccccc1)OC)N(C)C(=O)[C@@H](NC(=O)[C@@H](NC)C(C)C)C(C)C [MMAE, (S)—N-((3R,4S,5S)-1-((S)-2-((1R,2R)-3-(((1S,2R)-1-hydroxy-1-phenylpropan-2-yl)amino)-1-methoxy-2-methyl-3-oxopropyl)pyrrolidin-1-yl)-3-methoxy-5-methyl-1-oxoheptan-4-yl)-N,3-dimethyl-2-((S)-3-methyl-2-(methylamino)butanamido)butanamide] (H-[NMeV]V[Dil][Dolaproine]-X1)
- IC50 of drug alone [1]: greater than the top concentration tested
- IC50 ([2]; 24 h): 1400 nM
- IC50 ([2]; 48 h): 460 nM

Compound: CC[C@H](C)[C@@H]([C@@H](CC(=O)N1CCC[C@H]1[C@H](OC)[C@@H](C)C(=O)N[C@@H](Cc1ccccc1)C(=O)O)OC)N(C)C(=O)[C@@H](NC(=O)[C@@H](NC)C(C)C)C(C)C [MMAF, (S)-2-((2R,3R)-3-((S)-1-((3R,4S,5S)-4-((S)—N,3-dimethyl-2-((S)-3-methyl-2-(methylamino)butanamido)butanamido)-3-methoxy-5-methylheptanoyl)pyrrolidin-2-yl)-3-methoxy-2-methylpropanamido)-3-phenylpropanoic acid] (H-[NMeV]V[Dil][Dolaproine]F-OH)
- IC50 of drug alone [1]: greater than the top concentration tested
- IC50 ([2]; 24 h): 1300 nM
- IC50 ([2]; 48 h): 630 nM

Compound: CC/C(=C(\c1ccccc1)c1ccc(OCCN(C)C)cc1)c1ccccc1 [tamoxifen]
- RAGE expression, median IHC score ([3]; breast cancer patients taking tamoxifen, no endometrial cancer (TX no EC), n=19): 4
- effect on endometrial RAGE expression ([3]; endometrium from EC patients taking vs not taking tamoxifen): upregulation of RAGE
- RAGE expression, median IHC score ([3]; type I EC plus TX, n=21): 4
- RAGE expression, median IHC score ([3]; type II EC plus TX, n=17): 0.2
